Measured values published in ChEMBL document CHEMBL4725375, “Total synthesis and a systematic structure-activity relationship study of WAP-8294A2” (2020).
Values after ≈ are worked out from the molar mass of the structure shown.

How the values were obtained:
Staphylococcus aureus [1] = assay: Antibacterial activity against methicillin-resistant Staphylococcus aureus SA86 by CLSI M07-A8 protocol based microdilution method; type: functional
Staphylococcus aureus [2] = assay: Antibacterial activity against Staphylococcus aureus ATCC 29213 by CLSI M07-A8 protocol based microdilution method; type: functional

CC(C)CCC[C@@H]1CC(=O)N[C@@H](CO)C(=O)N[C@H](CCCCN)C(=O)N[C@@H](CO)C(=O)NCC(=O)N(C)[C@H](Cc2ccccc2)C(=O)N[C@@H](CC(C)C)C(=O)N[C@H](CCCN)C(=O)N[C@@H](CCC(=O)O)C(=O)N[C@H](CC(N)=O)C(=O)N[C@H](Cc2c[nH]c3ccccc23)C(=O)N[C@H](CCCN)C(=O)N(C)[C@@H](C(C)C)C(=O)O1
MIC (Staphylococcus aureus [1]): 1 µg/mL (≈ 0.641 µM)
MIC (Staphylococcus aureus [2]): 2 µg/mL (≈ 1.28 µM)

CC(C)CCC[C@@H]1CC(=O)N[C@@H](CO)C(=O)N[C@H](CC(N)=O)C(=O)N[C@@H](C)C(=O)NCC(=O)N(C)[C@H](Cc2ccccc2)C(=O)N[C@@H](CC(C)C)C(=O)N[C@H](CCCN)C(=O)N[C@@H](CCC(=O)O)C(=O)N[C@H](CC(N)=O)C(=O)N[C@H](Cc2c[nH]c3ccccc23)C(=O)N[C@H](CCCN)C(=O)N(C)[C@@H](C(C)C)C(=O)O1
MIC (Staphylococcus aureus [1]): 2 µg/mL (≈ 1.31 µM)
MIC (Staphylococcus aureus [2]): 2 µg/mL (≈ 1.31 µM)

CC(C)CCC[C@@H]1CC(=O)N[C@@H](CO)C(=O)N[C@H](CC(N)=O)C(=O)N[C@@H](CCCCN)C(=O)NCC(=O)N(C)[C@H](Cc2ccccc2)C(=O)N[C@@H](CC(C)C)C(=O)N[C@H](CCCN)C(=O)N[C@@H](CCC(=O)O)C(=O)N[C@H](CC(N)=O)C(=O)N[C@H](Cc2c[nH]c3ccccc23)C(=O)N[C@H](CCCN)C(=O)N(C)[C@@H](C(C)C)C(=O)O1
MIC (Staphylococcus aureus [1]): 2 µg/mL (≈ 1.26 µM)
MIC (Staphylococcus aureus [2]): 4 µg/mL (≈ 2.52 µM)

CC(C)CCC[C@@H]1CC(=O)N[C@@H](CO)C(=O)N[C@H]([C@@H](O)C(N)=O)C(=O)N[C@@H](CO)C(=O)NCC(=O)N(C)[C@H](Cc2ccccc2)C(=O)N[C@@H](CC(C)C)C(=O)N[C@H](CCCN)C(=O)N[C@@H](CCC(=O)O)C(=O)N[C@H](CC(N)=O)C(=O)N[C@H](Cc2c[nH]c3ccccc23)C(=O)N[C@H](CCCN)C(=O)N(C)[C@@H](C(C)C)C(=O)O1
MIC (Staphylococcus aureus [1]): 1 µg/mL (≈ 0.64 µM)
MIC (Staphylococcus aureus [2]): 1 µg/mL (≈ 0.64 µM)

CC(C)CCC[C@@H]1CC(=O)N[C@@H](CO)C(=O)N[C@H](CC(N)=O)C(=O)N[C@@H](CO)C(=O)NCC(=O)N(C)[C@H](Cc2ccccc2)C(=O)N[C@@H](CC(C)C)C(=O)N[C@H](CCCN)C(=O)N[C@@H](CCCCN)C(=O)N[C@H](CC(N)=O)C(=O)N[C@H](Cc2c[nH]c3ccccc23)C(=O)N[C@H](CCCN)C(=O)N(C)[C@@H](C(C)C)C(=O)O1
MIC (Staphylococcus aureus [1]): 1 µg/mL (≈ 0.647 µM)
MIC (Staphylococcus aureus [2]): 2 µg/mL (≈ 1.29 µM)

CC(C)CCC[C@@H]1CC(=O)N[C@@H](CO)C(=O)N[C@H](CC(N)=O)C(=O)N[C@@H](CO)C(=O)NCC(=O)N(C)[C@H](Cc2ccccc2)C(=O)N[C@@H](CC(C)C)C(=O)N[C@H](CCCN)C(=O)N[C@@H](CCC(=O)O)C(=O)N[C@H](CC(N)=O)C(=O)N[C@H](C)C(=O)N[C@H](CCCN)C(=O)N(C)[C@@H](C(C)C)C(=O)O1
MIC (Staphylococcus aureus [1]): ≥ 32 µg/mL
MIC (Staphylococcus aureus [2]): ≥ 32 µg/mL

CC(C)CCC[C@@H]1CC(=O)N[C@@H](CO)C(=O)N[C@H](CC(N)=O)C(=O)N[C@@H](CO)C(=O)N[C@@H](C)C(=O)N(C)[C@H](Cc2ccccc2)C(=O)N[C@@H](CC(C)C)C(=O)N[C@H](CCCN)C(=O)N[C@@H](CCC(=O)O)C(=O)N[C@H](CC(N)=O)C(=O)N[C@H](Cc2c[nH]c3ccccc23)C(=O)N[C@H](CCCN)C(=O)N(C)[C@@H](C(C)C)C(=O)O1
MIC (Staphylococcus aureus [1]): ≥ 32 µg/mL
MIC (Staphylococcus aureus [2]): ≥ 32 µg/mL

CC(C)CCC[C@@H]1CC(=O)N[C@@H](CO)C(=O)N[C@H](CC(N)=O)C(=O)N[C@@H](CO)C(=O)NCC(=O)N(C)[C@H](Cc2ccccc2)C(=O)N[C@@H](CC(C)C)C(=O)N[C@H](CCCN)C(=O)N[C@@H](C)C(=O)N[C@H](CC(N)=O)C(=O)N[C@H](Cc2c[nH]c3ccccc23)C(=O)N[C@H](CCCN)C(=O)N(C)[C@@H](C(C)C)C(=O)O1
MIC (Staphylococcus aureus [1]): 0.5 µg/mL (≈ 0.336 µM)
MIC (Staphylococcus aureus [2]): 1 µg/mL (≈ 0.672 µM)

CC(C)CCC[C@@H]1CC(=O)N[C@@H](CO)C(=O)N[C@H](CC(N)=O)C(=O)N[C@@H](CO)C(=O)NCC(=O)N(C)[C@H](Cc2ccccc2)C(=O)N[C@@H](CC(C)C)C(=O)N[C@H](CCCN)C(=O)N[C@@H](CCC(=O)O)C(=O)N[C@H](CC(N)=O)C(=O)N[C@H](Cc2ccccc2)C(=O)N[C@H](CCCN)C(=O)N(C)[C@@H](C(C)C)C(=O)O1
MIC (Staphylococcus aureus [1]): ≥ 32 µg/mL
MIC (Staphylococcus aureus [2]): ≥ 32 µg/mL

CC(C)CCC[C@@H]1CC(=O)N[C@@H](CO)C(=O)N[C@H](CC(N)=O)C(=O)N[C@@H](CO)C(=O)NCC(=O)N(C)[C@H](Cc2ccccc2)C(=O)N[C@@H](CC(C)C)C(=O)N[C@H](CCCNC(=N)N)C(=O)N[C@@H](CCC(=O)O)C(=O)N[C@H](CC(N)=O)C(=O)N[C@H](Cc2c[nH]c3ccccc23)C(=O)N[C@H](CCCN)C(=O)N(C)[C@@H](C(C)C)C(=O)O1
MIC (Staphylococcus aureus [1]): 2 µg/mL (≈ 1.26 µM)
MIC (Staphylococcus aureus [2]): 1 µg/mL (≈ 0.629 µM)

CC(C)CCC[C@@H]1CC(=O)N[C@@H](CO)C(=O)N[C@H]([C@H](O)C(N)=O)C(=O)N[C@@H](CO)C(=O)NCC(=O)N(C)[C@H](Cc2ccccc2)C(=O)N[C@@H](CC(C)C)C(=O)N[C@H](CCCN)C(=O)N[C@@H](CCC(=O)O)C(=O)N[C@H](CC(N)=O)C(=O)N[C@H](Cc2c[nH]c3ccccc23)C(=O)N[C@H](CCCN)C(=O)N(C)[C@@H](C(C)C)C(=O)O1
MIC (Staphylococcus aureus [1]): 1 µg/mL (≈ 0.64 µM)
MIC (Staphylococcus aureus [2]): 1 µg/mL (≈ 0.64 µM)

CC(C)CCC[C@@H]1CC(=O)N[C@@H](CO)C(=O)N[C@H](CC(N)=O)C(=O)N[C@@H](CO)C(=O)NCC(=O)N(C)[C@H](Cc2ccccc2)C(=O)N[C@@H](CC(C)C)C(=O)N[C@H](CCCN)C(=O)N[C@@H](CCC(=O)O)C(=O)N[C@H](CCCCN)C(=O)N[C@H](Cc2c[nH]c3ccccc23)C(=O)N[C@H](CCCN)C(=O)N(C)[C@@H](C(C)C)C(=O)O1
MIC (Staphylococcus aureus [1]): 1 µg/mL (≈ 0.641 µM)
MIC (Staphylococcus aureus [2]): 1 µg/mL (≈ 0.641 µM)

CC(C)CCC[C@@H]1CC(=O)N[C@@H](C)C(=O)N[C@H](CC(N)=O)C(=O)N[C@@H](CO)C(=O)NCC(=O)N(C)[C@H](Cc2ccccc2)C(=O)N[C@@H](CC(C)C)C(=O)N[C@H](CCCN)C(=O)N[C@@H](CCC(=O)O)C(=O)N[C@H](CC(N)=O)C(=O)N[C@H](Cc2c[nH]c3ccccc23)C(=O)N[C@H](CCCN)C(=O)N(C)[C@@H](C(C)C)C(=O)O1
MIC (Staphylococcus aureus [1]): 2 µg/mL (≈ 1.31 µM)
MIC (Staphylococcus aureus [2]): 2 µg/mL (≈ 1.31 µM)

CC(C)CCC[C@@H]1CC(=O)N[C@@H](CO)C(=O)N[C@H](CC(N)=O)C(=O)N[C@@H](CO)C(=O)NCC(=O)N(C)[C@H](Cc2ccccc2)C(=O)N[C@@H](C)C(=O)N[C@H](CCCN)C(=O)N[C@@H](CCC(=O)O)C(=O)N[C@H](CC(N)=O)C(=O)N[C@H](Cc2c[nH]c3ccccc23)C(=O)N[C@H](CCCN)C(=O)N(C)[C@@H](C(C)C)C(=O)O1
MIC (Staphylococcus aureus [1]): ≥ 32 µg/mL
MIC (Staphylococcus aureus [2]): ≥ 32 µg/mL

CC(C)CCC[C@@H]1CC(=O)N[C@@H](CCCCN)C(=O)N[C@H](CC(N)=O)C(=O)N[C@@H](CO)C(=O)NCC(=O)N(C)[C@H](Cc2ccccc2)C(=O)N[C@@H](CC(C)C)C(=O)N[C@H](CCCN)C(=O)N[C@@H](CCC(=O)O)C(=O)N[C@H](CC(N)=O)C(=O)N[C@H](Cc2c[nH]c3ccccc23)C(=O)N[C@H](CCCN)C(=O)N(C)[C@@H](C(C)C)C(=O)O1
MIC (Staphylococcus aureus [1]): 2 µg/mL (≈ 1.26 µM)
MIC (Staphylococcus aureus [2]): 2 µg/mL (≈ 1.26 µM)

CC(C)CCC[C@@H]1CC(=O)N[C@@H](CO)C(=O)N[C@H](CC(N)=O)C(=O)N[C@@H](CO)C(=O)NCC(=O)N(C)[C@H](Cc2ccccc2)C(=O)N[C@@H](CC(C)C)C(=O)N[C@H](CCCCN)C(=O)N[C@@H](CCC(=O)O)C(=O)N[C@H](CC(N)=O)C(=O)N[C@H](Cc2c[nH]c3ccccc23)C(=O)N[C@H](CCCN)C(=O)N(C)[C@@H](C(C)C)C(=O)O1
MIC (Staphylococcus aureus [1]): 2 µg/mL (≈ 1.28 µM)
MIC (Staphylococcus aureus [2]): 1 µg/mL (≈ 0.641 µM)

CC(C)CCC[C@@H]1CC(=O)N[C@@H](CO)C(=O)N[C@H](CC(N)=O)C(=O)N[C@@H](CO)C(=O)NCC(=O)N(C)[C@H](Cc2ccccc2)C(=O)N[C@@H](CC(C)C)C(=O)N[C@H](CCCN)C(=O)N[C@@H](CCC(=O)O)C(=O)N[C@H](CC(N)=O)C(=O)N[C@H](Cc2c[nH]c3ccccc23)C(=O)N[C@H](CCCNC(=N)N)C(=O)N(C)[C@@H](C(C)C)C(=O)O1
MIC (Staphylococcus aureus [1]): 2 µg/mL (≈ 1.26 µM)
MIC (Staphylococcus aureus [2]): 1 µg/mL (≈ 0.629 µM)

CC(C)CCC[C@@H]1CC(=O)N[C@@H](CO)C(=O)N[C@H](CC(N)=O)C(=O)N[C@@H](CO)C(=O)NCC(=O)N(C)[C@H](Cc2ccccc2)C(=O)N[C@@H](CC(C)C)C(=O)N[C@H](CCCN)C(=O)N[C@@H](CCC(=O)O)C(=O)N[C@H](C)C(=O)N[C@H](Cc2c[nH]c3ccccc23)C(=O)N[C@H](CCCN)C(=O)N(C)[C@@H](C(C)C)C(=O)O1
MIC (Staphylococcus aureus [1]): 1 µg/mL (≈ 0.665 µM)
MIC (Staphylococcus aureus [2]): 2 µg/mL (≈ 1.33 µM)

CC(C)CCC[C@@H]1CC(=O)N[C@@H](CO)C(=O)N[C@H](CC(N)=O)C(=O)N[C@@H](CO)C(=O)NCC(=O)N(C)[C@H](Cc2ccccc2)C(=O)N[C@@H](CCCCN)C(=O)N[C@H](CCCN)C(=O)N[C@@H](CCC(=O)O)C(=O)N[C@H](CC(N)=O)C(=O)N[C@H](Cc2c[nH]c3ccccc23)C(=O)N[C@H](CCCN)C(=O)N(C)[C@@H](C(C)C)C(=O)O1
MIC (Staphylococcus aureus [1]): ≥ 32 µg/mL
MIC (Staphylococcus aureus [2]): ≥ 32 µg/mL

CC(C)CCC[C@@H]1CC(=O)N[C@@H](CO)C(=O)N[C@H](CC(N)=O)C(=O)N[C@@H](CO)C(=O)NCC(=O)N(C)[C@H](Cc2ccccc2)C(=O)N[C@@H](CC(C)C)C(=O)N[C@H](CCCN)C(=O)N[C@@H](CCC(=O)O)C(=O)N[C@H](CC(N)=O)C(=O)N[C@H](Cc2ccc(O)cc2)C(=O)N[C@H](CCCN)C(=O)N(C)[C@@H](C(C)C)C(=O)O1
MIC (Staphylococcus aureus [1]): ≥ 32 µg/mL
MIC (Staphylococcus aureus [2]): ≥ 32 µg/mL

CC(C)CCC[C@@H]1CC(=O)N[C@@H](CO)C(=O)N[C@H](C)C(=O)N[C@@H](CO)C(=O)NCC(=O)N(C)[C@H](Cc2ccccc2)C(=O)N[C@@H](CC(C)C)C(=O)N[C@H](CCCN)C(=O)N[C@@H](CCC(=O)O)C(=O)N[C@H](CC(N)=O)C(=O)N[C@H](Cc2c[nH]c3ccccc23)C(=O)N[C@H](CCCN)C(=O)N(C)[C@@H](C(C)C)C(=O)O1
MIC (Staphylococcus aureus [1]): 2 µg/mL (≈ 1.33 µM)
MIC (Staphylococcus aureus [2]): 1 µg/mL (≈ 0.665 µM)

CC(C)CCC[C@@H]1CC(=O)N[C@@H](CO)C(=O)N[C@H](CC(N)=O)C(=O)N[C@@H](CO)C(=O)NCC(=O)N(C)[C@H](Cc2ccccc2)C(=O)N[C@@H](CC(C)C)C(=O)N[C@H](CCCN)C(=O)N[C@@H](CCC(=O)O)C(=O)N[C@H](CC(N)=O)C(=O)N[C@H](Cc2c[nH]c3ccccc23)C(=O)N[C@H](CCCN)C(=O)N[C@@H](C(C)C)C(=O)O1
MIC (Staphylococcus aureus [1]): ≥ 32 µg/mL
MIC (Staphylococcus aureus [2]): ≥ 32 µg/mL

CC(C)CCC[C@@H]1CC(=O)N[C@@H](CO)C(=O)N[C@H](CC(N)=O)C(=O)N[C@@H](CO)C(=O)NCC(=O)N(C)[C@H](Cc2ccccc2)C(=O)N[C@@H](CC(C)C)C(=O)N[C@H](CCCN)C(=O)N[C@@H](CCC(=O)O)C(=O)N[C@H](CC(N)=O)C(=O)N[C@H](Cc2c[nH]c3ccccc23)C(=O)N[C@H](Cc2c[nH]cn2)C(=O)N(C)[C@@H](C(C)C)C(=O)O1
MIC (Staphylococcus aureus [1]): 2 µg/mL (≈ 1.27 µM)
MIC (Staphylococcus aureus [2]): 2 µg/mL (≈ 1.27 µM)
